Measured values taken from patent US20210400970A1, “COMPOSITIONS COMPRISING PYRIDINE CARBOXYLATE HERBICIDES AND MICROTUBULE ASSEMBLY INHIBITOR HERBICIDES” (priority 2018, published 2021).

Tests used:
Type in all cases: in vivo
Conditions in all cases: 20-22 d
[1] = tested on: Viola tricolor (wild pansy, VIOTR); assay: Greenhouse post-emergence herbicidal effect on wild pansy
Description: (§1) Seeds of the desired test plant species were planted in a 90:10% v/v (volume/volume) mixture of PRO-MIX® BX (Premier Tech Horticulture, Quakertown, Pa., USA) and PROFILE® GREENS GRADE™ (Profile Products LLC, Buffalo Grove, Ill., USA) planting mixture, which typically has a pH of 5.2 to 6.2 and an organic matter content of at least 50 percent, in plastic pots with a surface area of 103.2 square centimeters (cm^2). […] The plants were grown for 7-36 days (d) in a greenhouse with an approximate 14-hour (h) photoperiod which was maintained at about 23° C. during the day and 22° C. during the night. Nutrients and water were added on a regular basis and supplemental lighting was provided with overhead metal halide 1000-Watt lamps as necessary. The plants were employed for testing when they reached the second or third true leaf stage.
(§2) Emulsifiable concentrates of each of each pyridine carboxylate herbicide (Compound A or Compound B) were prepared at 100 grams acid equivalent per liter (g ae/L). The emulsifiable concentrates also included a safener, cloquintocet-mexyl, at 120 grams active ingredient per liter (g ai/L). An aliquot of each emulsifiable concentrate was placed in a 25 mL glass vial and diluted with an aqueous mixture of 1.25% (v/v) ACTIROB® B esterified rapeseed oil (Bayer Crop Science, Research Triangle Park, NC, USA) or MSO® Concentrate with LECI-TECH® methylated soybean oil (Loveland Products, Loveland, Colo., USA) to obtain concentrated stock solutions at the highest application rate for each herbicide, based upon a 12 milliliter (mL) application volume at a rate of 187 liters per hectare (L/ha). The concentrated stock solutions were further diluted with an aqueous mixture of 1.25% v/v ACTIROB® B or MSO® Concentrate with LECI-TECH® to obtain stock solutions at reduced application rates for each herbicide. Spray solutions of the herbicide combinations (Compound A or Compound B plus the MAI herbicide) were prepared by adding weighed amounts or aliquots of the MAI herbicide to the stock solutions of Compound A or Compound B to form 12-mL spray solutions in two-way combinations.
(§3) The spray solutions were applied to the plant material with an overhead Mandel track sprayer equipped with 8002E nozzles calibrated to deliver 187 L/ha over an application area of 0.503 square meters (m^2) at a spray height of 18 inches (43 centimeters (cm)) above the average plant canopy. Control plants were sprayed in the same manner with the solvent blank. All pyridine carboxylate herbicide (component a) application rates are given as “g ae/ha” and all MAI herbicide (component b) application rates are given as “g ai/ha.”
(§4) The treated plants and control plants were placed in a greenhouse as described above and watered by sub-irrigation to prevent wash-off of the test compounds. After 20-22 d, the condition of the test plants as compared with that of the control plants was determined visually and scored on a scale of 0 to 100 percent where 0 corresponds to no injury and 100 corresponds to complete kill.

[2] = tested on: Chenopodium album L. (common lambsquarters, CHEAL); assay: Greenhouse post-emergence herbicidal effect on common lambsquarters
Description: as §1, §2
(§5) The spray solutions were applied to the plant material with an overhead Mandel track sprayer equipped with 8002E nozzles calibrated to deliver 187 L/ha over an application area of 0.503 square meters (m^2) at a spray height of 18 inches (43 centimeters (cm)) above the average plant canopy. […]
as §4

[3] = tested on: Lolium multiflorum (Italian ryegrass, LOLMU); assay: Greenhouse post-emergence herbicidal effect on Italian ryegrass
Description: as §1, §2, §3, §4

[4] = tested on: Echinochloa crus-galli (barnyard grass, ECHCG); assay: Greenhouse post-emergence herbicidal effect on barnyard grass
Description: as §1, §2, §3, §4

[5] = tested on: Digitaria sanguinalis (large crabgrass, DIGSA); assay: Greenhouse post-emergence herbicidal effect on large crabgrass
Description: as §1, §2, §3, §4

[6] = tested on: Abutilon theophrasti (velvetleaf, ABUTH); assay: Greenhouse post-emergence herbicidal effect on velvetleaf
Description: as §1, §2, §5, §4

[7] = tested on: Polygonum convolvulus (wild buckwheat, POLCO); assay: Greenhouse post-emergence herbicidal effect on wild buckwheat
Description: as §1, §2, §5, §4

[8] = tested on: Cirsium arvense (Canada thistle, CIRAR); assay: Greenhouse post-emergence herbicidal effect on Canada thistle
Description: as §1, §2, §3, §4

[9] = tested on: Brassica napus (spring rape, BRSNN); assay: Greenhouse post-emergence herbicidal effect on spring rape
Description: as §1, §2, §3, §4

[10] = tested on: Setaria faberi (giant foxtail, SETFA); assay: Greenhouse post-emergence herbicidal effect on giant foxtail
Description: as §1, §2, §3, §4

[11] = tested on: Rumex obtusifolius (broad-leaf dock, RUMOB); assay: Greenhouse post-emergence herbicidal effect on broad-leaf dock
Description: as §1, §2, §3, §4

[12] = tested on: Glycine max (soybean, GLXMA); assay: Greenhouse post-emergence herbicidal effect on volunteer soybean
Description: as §1, §2, §3, §4

[13] = tested on: Ipomoea hederacea (ivyleaf morningglory, IPOHE); assay: Greenhouse post-emergence herbicidal effect on ivyleaf morningglory
Description: as §1, §2, §3, §4

[14] = tested on: Kochia scoparia (kochia, KCHSC); assay: Greenhouse post-emergence herbicidal effect on kochia
Description: as §1, §2, §3, §4

[15] = MAI herbicide alone, 280 g ai/ha
[16] = MAI herbicide alone, 560 g ai/ha

## N#CCOC(=O)c1nc(-c2ccc3cc[nH]c3c2F)c(F)c(N)c1Cl [Compound A, cyanomethyl 4-amino-3-chloro-5-fluoro-6-(7-fluoro-1H-indol-6-yl)pyridine-2-carboxylate]
[1]; Compound A alone, 7.5 g ae/ha
  Obs (% visual injury): 10%
[1]; Compound A alone, 10 g ae/ha
  Obs (% visual injury): 18%
[2]; Compound A alone, 7.5 g ae/ha
  Obs (% visual injury): 97%
[2]; Compound A alone, 10 g ae/ha
  Obs (% visual injury): 93%
[3]; Compound A alone, 7.5 g ae/ha
  Obs (% visual injury): 0%
[3]; Compound A alone, 10 g ae/ha
  Obs (% visual injury): 0%
[4]; Compound A alone, 7.5 g ae/ha
  Obs (% visual injury): 73%
[4]; Compound A alone, 10 g ae/ha
  Obs (% visual injury): 78%
[5]; Compound A alone, 7.5 g ae/ha
  Obs (% visual injury): 45%
[5]; Compound A alone, 10 g ae/ha
  Obs (% visual injury): 25%
[6]; Compound A alone, 7.5 g ae/ha
  Obs (% visual injury): 68%
[6]; Compound A alone, 10 g ae/ha
  Obs (% visual injury): 78%
[7]; Compound A alone, 7.5 g ae/ha
  Obs (% visual injury): 75%
[7]; Compound A alone, 10 g ae/ha
  Obs (% visual injury): 70%
[8]; Compound A alone, 7.5 g ae/ha
  Obs (% visual injury): 23%
[8]; Compound A alone, 10 g ae/ha
  Obs (% visual injury): 20%
[9]; Compound A alone, 7.5 g ae/ha
  Obs (% visual injury): 73%
[9]; Compound A alone, 10 g ae/ha
  Obs (% visual injury): 83%
[10]; Compound A alone, 7.5 g ae/ha
  Obs (% visual injury): 70%
[10]; Compound A alone, 10 g ae/ha
  Obs (% visual injury): 70%
[11]; Compound A alone, 7.5 g ae/ha
  Obs (% visual injury): 8%
[11]; Compound A alone, 10 g ae/ha
  Obs (% visual injury): 10%
[12]; Compound A alone, 7.5 g ae/ha
  Obs (% visual injury): 93%
[12]; Compound A alone, 10 g ae/ha
  Obs (% visual injury): 95%
[13]; Compound A alone, 7.5 g ae/ha
  Obs (% visual injury): 3%
[13]; Compound A alone, 10 g ae/ha
  Obs (% visual injury): 8%
[14]; Compound A alone, 7.5 g ae/ha
  Obs (% visual injury): 60%
[14]; Compound A alone, 10 g ae/ha
  Obs (% visual injury): 65%

## CSC(=O)c1c(C(F)F)nc(C(F)(F)F)c(C(=O)SC)c1CC(C)C [Dithiopyr]
[1]; [15]
  Obs (% visual injury): 0%
[2]; [15]
  Obs (% visual injury): 10%
[3]; [15]
  Obs (% visual injury): 0%
[4]; [15]
  Obs (% visual injury): 0%
[5]; [15]
  Obs (% visual injury): 33%
[6]; [15]
  Obs (% visual injury): 40%
[7]; [15]
  Obs (% visual injury): 0%
[8]; [15]
  Obs (% visual injury): 0%
[9]; [15]
  Obs (% visual injury): 58%
[10]; [15]
  Obs (% visual injury): 0%
[11]; [15]
  Obs (% visual injury): 5%
[12]; [15]
  Obs (% visual injury): 13%
[13]; [15]
  Obs (% visual injury): 30%
[14]; [15]
  Obs (% visual injury): 15%

## CCC(CC)Nc1c([N+](=O)[O-])cc(C)c(C)c1[N+](=O)[O-] [Pendimethalin]
[1]; [16]
  Obs (% visual injury): 0%
[3]; [16]
  Obs (% visual injury): 0%
[4]; [16]
  Obs (% visual injury): 0%
[5]; [16]
  Obs (% visual injury): 15%
[7]; [16]
  Obs (% visual injury): 0%
[8]; [16]
  Obs (% visual injury): 5%
[9]; [16]
  Obs (% visual injury): 15%
[10]; [16]
  Obs (% visual injury): 0%
[11]; [16]
  Obs (% visual injury): 0%
[12]; [16]
  Obs (% visual injury): 23%
[13]; [16]
  Obs (% visual injury): 3%
[14]; [16]
  Obs (% visual injury): 18%

## C#CC(C)(C)NC(=O)c1cc(Cl)cc(Cl)c1 [Propyzamide]
[1]; [15]
  Obs (% visual injury): 0%
[2]; [15]
  Obs (% visual injury): 0%
[3]; [15]
  Obs (% visual injury): 0%
[4]; [15]
  Obs (% visual injury): 0%
[5]; [15]
  Obs (% visual injury): 0%
[6]; [15]
  Obs (% visual injury): 5%
[8]; [15]
  Obs (% visual injury): 0%
[9]; [15]
  Obs (% visual injury): 0%
[10]; [15]
  Obs (% visual injury): 0%
[11]; [15]
  Obs (% visual injury): 0%
[12]; [15]
  Obs (% visual injury): 23%
[13]; [15]
  Obs (% visual injury): 3%
[14]; [15]
  Obs (% visual injury): 18%
